In patent publication US10695341B2, “Compositions and methods for treating endometriosis” (UNIVERSITY OF SOUTH FLORIDA, priority 2014, dated 2020):

Tests used:
LC3B-II [1] = experiment: Western blot for LC3B, T-HESC cells, HCQ; format: cell-based, human; conditions: 25 μM HCQ, 18 hours
peritoneal macrophages = experiment: Peritoneal macrophage flow cytometry (CD11b, F4/80); format: in vivo, mouse; conditions: HCQ-treated vs PBS-treated mice, p=0.0079
Experimental: The pellet obtained after centrifugation of the peritoneal fluid wash (see above) was utilized for macrophage staining. When necessary, red blood cell lysis was performed according to the manufacturer's protocol (eBioscience, San Diego, Calif.). The cell pellets were resuspended in 1 ml cold PBS and transferred to flow cytometry tubes. Samples were centrifuged for 1 min at 1,390 rpm. The supernatant was decanted and cells were resuspended in 100 μl of PBS. Cells were blocked using 0.5 μg of Mouse BD Fc, Block™ (#553141, BD Pharmingen, San Jose, Calif.) for 5 min on ice. The cells were incubated in 0.4 μg of APC Rat anti-mouse CD11b clone M1/70 (#553312, BD Pharmingen, San Jose, Calif.) and anti mPE-F4/80/EMR1 (# FAB5580C, R&D Systems, Minneapolis, Minn.)) at room temperature for 30 min, protected from light. After incubation, 700 μl of PBS was added to each tube and centrifuged for 1 min at 4° C. The supernatant was decanted, and the cells were resuspended in 300 μl in PBS and analyzed by flow cytometry.

ATG5 and ATG3 mRNA = experiment: Real-time PCR of autophagic mediators in lesions; format: in vivo, C57BL/6 mice; conditions: lesions of HCQ-treated vs PBS-treated mice
Experimental: Total RNA was isolated using the RNeasy kit following the manufacturer's instructions (QIAGEN, Valencia, Calif.). RNA concentration and purity was determined using a 1000 NanoDrop (Thermo Scientific, Pittsburgh, Pa.). Lesion mass varied by samples, and this was reflected in the RNA amounts obtained (range of mass: 0.9 mg to 25 mg). Three RNA samples from uterine horns, having a 260/280 ratio higher than 1.8 and a 260/230 ratio higher than 1.7, were selected from recipient, donor, HCQ-treated, and PBS-treated animals (12 samples in total) for RT2-PCR analyses. Synthesis of cDNA was performed using 0.5 μg of total RNA, after DNA elimination step using the RT2 First Strand kit per manufacturer instructions (QIAGEN, Valencia, Calif.). After DNA elimination, the reaction mix was incubated at 42° C. for 15 min, followed by 95° C. for 5 min using a DNA Engine® Peltier Thermal cycler (Bio-Rad, Hercules, Calif.). A total of 102 μl of the cDNA reaction mix was added to the master mix containing 1,248 μl of RNAse-free water and 1,350 μl of 2× RT2 SYBR green master mix. Twenty-five μl of the master mix were carefully added to each well of the RT2 profiler PCR autophagy array. Quantification was performed using the Applied Biosystems cycler (Life Technologies, Grand Island, N.Y.). […] The PCR cycling program finalized with a melt curve analysis and data was analyzed using the QIAGEN web-based software.

LC3B-II [2] = experiment: Western blot of LC3B in other organs of treated mice; format: in vivo, mouse; conditions: 5 HCQ-treated vs 5 PBS-treated mice
Experimental: Tissues used for protein analyses included uterine horns, ectopic lesions, ovaries, thymus, kidneys, heart, pancreas, spleen, and liver. Samples were flash frozen in liquid nitrogen and stored at -80° C. until use. Tissues were homogenized in ice-cold lysis buffer containing 1% Triton X-100, 50 mM HEPES, 150 mM NaCl, 1 mM MgCl2, 1 mM EGTA, 10% glycerol, and protease inhibitor cocktail (Roche, Indianapolis, Ind.) using a PowerGen 125 homogenizer (Fisher Scientific, Pittsburgh, Pa.). Samples were centrifuged at 14,000 rpm for 10 min at 4° C. The supernatants were collected and total protein concentration was determined using the BCA assay (ThermoScientific, Rockford, Ill.), and a Bio Tek synergy 2 microplate reader (Winooski, Vt.). Samples were normalized and then run onto 10 or 12% SDS-polyacrylamide gels prepared in a Criterion® Cassette system (Bio-Rad, Hercules, Calif.) as previously described. The following antibodies and dilutions were used: LC3B rabbit polyclonal (#2775, 1:1,000), LC3A rabbit monoclonal (#4599 ([…]), 1:1,000), Beclin-1 rabbit polyclonal (#3738, 1:1,000), GABARAPL1 rabbit monoclonal (#13733 (E1J4E), 1:1,000), AMPKα rabbit monoclonal (#2603 (23A3), 1:500), FOXO1 rabbit monoclonal (#2880 (C29H4), 1:1,000), and Pan-Actin rabbit polyclonal (#4968, 1:500) were all obtained from Cell Signaling Technology (Danvers, Mass.). […]

## CCN(CCO)CCCC(C)Nc1ccnc2cc(Cl)ccc12 (stereo not drawn) [HCQ, hydroxychloroquine]
LC3B-II [1]
  LC3B-II protein in T-HESC cells: increase
Peritoneal macrophages
  macrophage numbers in peritoneal cavity: significant increase
ATG5 and ATG3 mRNA; p=0.0248
  ATG3 mRNA in lesions: significant increase
ATG5 and ATG3 mRNA; p=0.0499
  ATG5 mRNA in lesions: significant increase
LC3B-II [2]
  LC3B-II expression in heart: showed differences
  LC3B-II expression in lung: showed differences
